Test results as given in patent publication US20200147028A1, “TREATMENT OF RESPIRATORY INFECTION WITH A TLR2 AGONIST” (Ena Therapeutics Pty Ltd, priority 2017, published 2020).
“Also recorded” adds a separate entry of the source.

Experiments:
[1] = set-up: species or system BALB/c mice; settings: mouse, in vivo
Text: Each group contained 5 mice.

BAL inflammatory cells [2] = experiment: Mouse RV1B infection model: BAL cell analysis
Procedure: Following sacrifice, mice were tracheally cannulated and 1 ml of Hanks buffered saline solution (Hyclone™, GE Life Sciences) flushed through the airways, 3-5 times. BAL cells were pelleted by centrifugation and supernatant was collected and stored at −80° C. for ELISAs. The pelleted cells were red blood cells lysed and the remaining cells were counted on a heamocytometer by trypan blue exclusion. Cell suspensions were then cytocentrifuged onto slides and fixed and stained with Diff Quick (POCD) solutions as per manufacturer's recommendations. A minimum of 200 total cells were counted per slide and numbers of neutrophils, lymphocytes, and macrophages were determined.

RV1B = RV1B infection of ALI-differentiated BCi-NS1 cells: viral RNA by qPCR; settings: 20 nM and 2 nM pre-treatment 24 h; 96 h post infection; vs control
[3] = tested on: other TLR pattern recognition receptors; experiment: TLR panel NF-κB SEAP reporter in HEK293 cells: other TLRs; format: cell-based; settings: human and mouse TLR panels
Procedure: (§1) INNA-006 was assessed for its ability to activate a range of other TLR pattern recognition receptors. These assessments were conducted using both human and mouse TLR panels. These assays detect a secreted embryonic alkaline phosphatase (SEAP) reporter under the control of a promoter which is inducible by NF-κB activation in HEK293 cells. The secreted embryonic alkaline phosphatase (SEAP) reporter is under the control of a promoter inducible by the transcription factor NF-κB. This reporter gene allows the monitoring of signaling through the TLR, based on the activation of NF-κB. In a 96-well plate (200 μL total volume) containing the appropriate cells (50,000-75,000 cells/well), 20 μL of the test article or the positive control ligand is added to the wells. The media added to the wells is designed for the detection of NF-κB induced SEAP expression. After a 16-24 hr incubation the optical density (OD) is read at 650 nm on a Molecular Devices SpectraMax 340PC absorbance detector.

CXCL1 [4] = experiment: Mouse RV1B infection with fluticasone propionate: CXCL1 in BAL by ELISA; format: in vivo, BALB/c mice; settings: 2 pmol INNA-006, with or without FP; day 2 p.i.
[5] = tested on: Rhinovirus serotype 1B (RV1B); experiment: Mouse RV1B infection with fluticasone propionate: lung viral RNA by qPCR
TNF-α = experiment: Mouse RV1B infection with fluticasone propionate: TNF-α in BAL by ELISA; format: in vivo, BALB/c mice
TLR-2 = TLR-2 (Homo sapiens, UniProt O60603); experiment: TLR panel NF-κB SEAP reporter in HEK293 cells: TLR-2; format: cell-based; set-up: expressed in transfected cells; host or cells: HEK293; settings: human and mouse TLR panels, FIG. 21
TLR-2, sequence (O60603 21-784): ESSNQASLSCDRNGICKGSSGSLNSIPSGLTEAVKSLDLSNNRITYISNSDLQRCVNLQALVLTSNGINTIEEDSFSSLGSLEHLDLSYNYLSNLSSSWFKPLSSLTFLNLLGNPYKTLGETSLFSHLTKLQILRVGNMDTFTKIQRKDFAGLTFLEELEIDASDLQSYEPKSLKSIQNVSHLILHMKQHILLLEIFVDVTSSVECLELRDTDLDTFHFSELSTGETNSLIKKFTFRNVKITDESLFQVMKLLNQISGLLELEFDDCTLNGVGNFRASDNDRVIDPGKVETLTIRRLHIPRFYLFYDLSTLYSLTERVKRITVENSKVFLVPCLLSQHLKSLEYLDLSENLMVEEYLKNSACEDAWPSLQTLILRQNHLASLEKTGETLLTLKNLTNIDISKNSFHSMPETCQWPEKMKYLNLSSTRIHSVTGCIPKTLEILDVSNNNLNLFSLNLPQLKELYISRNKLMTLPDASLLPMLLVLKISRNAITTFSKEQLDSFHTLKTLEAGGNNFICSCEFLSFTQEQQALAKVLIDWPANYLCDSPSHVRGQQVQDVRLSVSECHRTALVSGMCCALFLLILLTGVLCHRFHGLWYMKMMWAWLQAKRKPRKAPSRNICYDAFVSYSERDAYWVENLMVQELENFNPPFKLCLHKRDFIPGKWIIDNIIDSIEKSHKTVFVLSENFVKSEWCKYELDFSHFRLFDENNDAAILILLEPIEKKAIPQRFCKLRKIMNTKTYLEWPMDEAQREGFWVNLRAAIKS
TLR-2, sequence (Q9Y2C9 32-796 partner): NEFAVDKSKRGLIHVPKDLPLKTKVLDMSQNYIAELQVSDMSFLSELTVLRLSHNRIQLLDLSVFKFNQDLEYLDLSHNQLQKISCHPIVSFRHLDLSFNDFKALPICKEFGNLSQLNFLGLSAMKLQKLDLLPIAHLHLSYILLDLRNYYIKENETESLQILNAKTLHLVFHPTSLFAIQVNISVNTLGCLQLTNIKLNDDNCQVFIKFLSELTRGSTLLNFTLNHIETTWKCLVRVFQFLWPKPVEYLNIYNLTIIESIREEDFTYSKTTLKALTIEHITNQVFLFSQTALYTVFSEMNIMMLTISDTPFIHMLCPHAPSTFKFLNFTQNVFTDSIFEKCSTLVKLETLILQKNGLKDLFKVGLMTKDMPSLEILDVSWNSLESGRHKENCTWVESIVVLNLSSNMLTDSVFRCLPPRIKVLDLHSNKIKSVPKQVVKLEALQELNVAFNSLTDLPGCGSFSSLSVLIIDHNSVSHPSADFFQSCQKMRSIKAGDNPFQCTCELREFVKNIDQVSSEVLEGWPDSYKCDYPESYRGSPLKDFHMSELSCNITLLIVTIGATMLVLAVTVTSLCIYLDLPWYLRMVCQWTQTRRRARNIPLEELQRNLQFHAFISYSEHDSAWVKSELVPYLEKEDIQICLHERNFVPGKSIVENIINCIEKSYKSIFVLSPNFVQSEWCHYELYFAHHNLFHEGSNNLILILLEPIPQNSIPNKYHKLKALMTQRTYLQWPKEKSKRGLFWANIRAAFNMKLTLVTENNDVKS
Procedure: as §1

TNFα = experiment: Mouse RV1B infection model: TNFα in BAL by ELISA
Procedure: (§2) Remaining lung lobes we snap frozen in liquid nitrogen, homogenised in 600 μl PBS containing protease inhibitors (Roche) by TissueLyser II run twice at 30 Hz for 4 minutes. Cell debris was pelleted by centrifugation, samples were diluted 1:2 with PBS and stored at −80° C. BAL fluid was then analysed for production of KC/IL-8 (CXCL1) and TNF-α by Duoset ELISA (R&D Systems) as per manufacturer's instructions.

[6] = tested on: Rhinovirus serotype 1B (RV1B); experiment: Mouse RV1B infection model: lung viral RNA by qPCR; settings: for lung viral load: day +1
CXCL1 [7] = experiment: Mouse RV1B infection model: CXCL1 in BAL by ELISA
Procedure: as §2

BAL inflammatory cells [8] = experiment: Mouse RV1B infection with fluticasone propionate: BAL cell analysis
Procedure: Following sacrifice, mice were tracheally cannulated and 1 ml of Hanks buffered saline solution (Hyclone™, GE Life Sciences) flushed through the airways, 3-5 times. BAL cells were pelleted by centrifugation and supernatant was collected and stored at −80° C. for ELISAs. The pelleted cells were red blood cells lysed and the remaining cells were counted on a heamocytometer by trypan blue exclusion. Cell suspensions were then cytocentrifuged onto slides and fixed and stained with Diff Quick (POCD) solutions as per manufacturers recommendations. A minimum of 200 total cells were counted per slide and numbers of neutrophils, lymphocytes, and macrophages were determined.

[9] = Study 1G: lowest doses (2 pmole and 1 pmole) day +1, listed as Peg-S-Pam2Cys

Structure (SMILES): CCC(=O)OCC(CSCC(N)C(=O)NC(CO)C(=O)NCCOCC(=O)NCC(N)=O)OC(=O)CC (stereo not drawn) [INNA-006, Pam2Cys-Ser-PEG]
- weight loss [1]: weight loss at the higher doses
- weight loss after second dose [1]: no weight loss observed
- RV-induced BAL neutrophilic inflammation (BAL inflammatory cells [2]; Study 1E: day −7, day 2 p.i., listed as Peg-S-Pam2Cys): reduced RV-induced BAL neutrophilic inflammation; also recorded: reduced RV-induced neutrohillic inflammation; also recorded: significantly reduced neutrophilic inflammation
- BAL macrophages (BAL inflammatory cells [2]; Study 1F: 2 pmol day −7, mock): higher numbers of macrophages compared to its saline mock control group
- BAL lymphocytes (BAL inflammatory cells [2]; Study 1F: 2 pmol, day −7, day −1 or both): promoted lymphocyte recruitment in the BAL
- total BAL leukocytes in RV1B infected mice (BAL inflammatory cells [2]; Study 1F: 2 pmol, vs Saline RV): did not induce significantly higher leukocyte recruitment
- total BAL leukocytes in mock infected mice (BAL inflammatory cells [2]; Study 1F: 2 pmol, vs Saline mock): Total leukocytes were increased
- neutrophilic response in uninfected mice (BAL inflammatory cells [2]; Study 1F: three days after dosing (d-1 groups)): not Peg-S-Pam2Cys
- BAL lymphocytes (BAL inflammatory cells [2]; Study 1G: day +1 treatment): no changes to lymphocyte numbers
- BAL macrophages (BAL inflammatory cells [2]; Study 1G: day +1 treatment): significantly reducing macrophage numbers
- total BAL leucocyte numbers (BAL inflammatory cells [2]; Study 1G: day +1 treatment): no significant differences
- BAL neutrophils (BAL inflammatory cells [2]; Study 1G: day +1 treatment, listed as Peg-S-Pam2Cys): drastically increases neutrophil numbers in BAL; also recorded: increasing neutrophil recruitment
- reduction of viral RNA levels (RV1B): approximately 50%
- activation of other TLRs (SEAP reporter) [3]: no activation of any other TLR tested
- CXCL1 in BAL (CXCL1 [4]): neutrophil chemokine production supressed; also recorded: supressed CXCL1 production; also recorded: drastically reduced levels of mouse neutrophil chemokine CXCL1; also recorded: highly effective at suppressing CXCL1 expression
- viral lung load ([5]; 2 pmol INNA-006, both treatment protocols, all groups): reduced virus lung load in all groups; also recorded: significant reduction in viral load with both treatment protocols
- viral lung load / antiviral efficacy ([5]; repeated INNA-006 (D-7 & D-1) with FP): antiviral efficacy of repeated INNA-006 treatment was enhanced by FP; also recorded: best suppression of viral lung RNA
- TNF-α in BAL (TNF-α; repeated doses (D-7 & D-1)): not observed
- TNF-α in BAL (TNF-α; single 2 pmol dose seven days prior to infection): significant TNF-α production in BAL
- activation of TLR-2 (SEAP reporter) (TLR-2): able to activate its proposed target (TLR-2)
- TNF-α in BAL (TNFα; Study 1E: day −7, listed as Peg-S-Pam2Cys): not increased by any of the compounds; also recorded: lack of induction of TNFα
- TNF-α in BAL (TNFα; Study 1F: 2 pmol, all groups): did not induce TNF-α in any of the groups
- TNF-α in BAL (TNFα; Study 1G: 10-1 pmol day +1): dose dependent upon drug treatment
- TNF-α in BAL (TNFα; [9]): not increased by the lowest doses; also recorded: no significant increase in KC or TNFα
- reduction of RV infection (lung RV copy number) ([6]; Study 1E: 10 pmol day −7): 86.76%
- anti-viral efficacy relative to Pam2CysSK4 ([6]; Study 1E: 10 pmol dose day −7, listed as Peg-S-Pam2Cys): better anti-viral efficacy compared to Pam2CysSK4
- dose dependence of RV suppression ([6]; Study 1E: 1-10 pmol day −7): appeared to be dose dependant
- RV copy number in lung ([6]; Study 1E: every dose 1-10 pmol day −7, day 2 p.i.): significant reduction in RV infection
- viral clearance, day −7 + day −1 versus day −7 only ([6]; Study 1F: 2 pmol): enhanced viral clearance compared to mice dose only on day 7
- reduced viral RNA ([6]; Study 1F: single treatment at day −7): 70%
- reduction in viral RNA ([6]; Study 1F: treatment at both days −7 and −1): approx. 90%
- RV copy numbers in lung ([6]; Study 1G: 10, 5, 2, 1 pmol 1 day post-infection, day 2 p.i.): reduces RV1B copy numbers in the lung
- lung viral load ([6]; Study 1G: doses 5 pmole per mouse and lower): significant reduction in lung viral load
- lung viral load ([6]; Study 1G: highest dose 10 pmole per mouse): less effective and not significant
- RV-induced expression of CXCL1 (CXCL1 [7]; Study 1E(ii): INNA-011 and INNA-006 comparison, day −7): reduced RV-induced expression of CXCL1
- CXCL1 in BAL (CXCL1 [7]; Study 1E: 10 pmol and 5 pmol dose day −7): effectively reduced CXCL1 levels
- CXCL1 in BAL (CXCL1 [7]; Study 1F: 2 pmol day −1, RV1B, listed as Peg-S-Pam2Cys): CXCL1 production was only increased; also recorded: significantly increased in mice treated one day prior to infection
- CXCL1 / lung inflammation after day −1 dose with prior day −7 dose (CXCL1 [7]; Study 1F: 2 pmol day −7 and day −1, listed as Peg-S-Pam2Cys): protected from lung inflammation; also recorded: completely abolished
- CXCL1 in BAL (CXCL1 [7]; Study 1G: 10-1 pmol day +1): dose dependent upon drug treatment
- CXCL1 (KC) in BAL (CXCL1 [7]; [9]): not increased by the lowest doses; also recorded: no significant increase in KC or TNFα
- RV-induced, steroid resistant neutrophilic inflammation (BAL inflammatory cells [8]; 2 pmol, all treatment protocols, with or without FP): prevented RV-induced and steroid resistant neutrophilic inflammation; also recorded: completely ameliorated RV-induced and steroid resistant neutrophilic inflammatory response; also recorded: complete suppression of RV-induced steroid resistant neutrophilic inflammation
- BAL macrophages and lymphocytes (BAL inflammatory cells [8]; D-7 INNA-006 2 pmol with FP): increased macrophages and lymphocytes when given in conjunction with FP
- BAL macrophages and lymphocytes (BAL inflammatory cells [8]; combined D-7 & D-1 INNA-006 2 pmol): increased macrophages and lymphocytes in BAL
- BAL macrophages (BAL inflammatory cells [8]; combined D-7 & D-1 INNA-006 in FP treated mice): Increased Macrophages
- total BAL leukocyte numbers (BAL inflammatory cells [8]; repeated 2 pmol INNA-006 (day −7 & day −1)): increased total leukocyte numbers
